Measured values taken from ChEMBL document CHEMBL4825709 (J Med Chem, 2021).
In brackets after ≈: the same amount, converted by molar mass.

Test: physchem
Settings: buffer, pH 7.4, logD

Compound	logD
Cc1cc(C(=O)N(CC(c2ccccc2)c2ccccc2)C(C)CN2CCOCC2)cn(C)c1=O (configuration not stated)	5.4
CNC(=O)CN(CC(c1ccccc1)C1CCOCC1)C(=O)c1cc(C)c(=O)n(C)c1 (configuration not stated)	2.1
CNC(=O)C(C)N(CC(c1ccccc1)c1ccccc1)C(=O)c1cc(C)c(=O)n(C)c1 (configuration not stated)	3.7
CNC(=O)C(C1COC1)N(CC(c1ccccc1)c1ccccc1)C(=O)c1cc(C)c(=O)n(C)c1 (configuration not stated)	3.6
CCNC(=O)C(C)N(CC(c1ccccc1)c1ccccc1)C(=O)C1CCC(=O)N(C)C1 (configuration not stated)	3.9
CNC(=O)C(C1CCC1)N(CC(c1ccccc1)c1ccccc1)C(=O)c1cc(C)c(=O)n(C)c1 (configuration not stated)	4.9
CNC(=O)C(C1CC1)N(CC(c1ccccc1)c1ccccc1)C(=O)c1cc(C)c(=O)n(C)c1 (configuration not stated)	4.4
CCNC(=O)C(C)N(CC(c1ccccc1)c1ccccc1)C(=O)c1c[nH]c(=O)c(C)c1 (configuration not stated)	3.6
CNC(=O)C1(N(CC(c2ccccc2)c2ccccc2)C(=O)c2cc(C)c(=O)n(C)c2)CC1	4.4
CCC(CN(CC(=O)NC)C(=O)c1cc(C)c(=O)n(C)c1)c1ccccc1 (configuration not stated)	2.8
COCC(COC)N(CC(c1ccccc1)c1ccccc1)C(=O)c1cc(C)c(=O)n(C)c1	5.5
Cc1cc(C(=O)N(CC(c2ccccc2)c2ccccc2)C(C)C#N)cn(C)c1=O (configuration not stated)	4.8
CNC(=O)CN(CC(c1ccccc1)c1ccccc1)C(=O)c1cc(C)c(OC)c(C)c1	5.7
CNC(=O)CN(CC(C)c1ccccc1)C(=O)c1cc(C)c(=O)n(C)c1 (configuration not stated)	2.2
CNC(=O)C1(N(CC(c2ccccc2)c2ccccc2)C(=O)c2cc(C)c(=O)n(C)c2)CCC1	4.9
CCNC(=O)C(C)N(CC(c1ccccc1)c1ccccc1)C(=O)c1ccc(=O)n(C)c1 (configuration not stated)	3.7
CNC(=O)C(C)N(CC(c1ccccc1)c1ccccn1)C(=O)c1cc(C)c(=O)n(C)c1 (stereo in doubt; 50)	2.3
CNC(=O)[C@@H](C1CCOCC1)N(CC(c1ccccc1)c1ccccn1)C(=O)c1cc(C)c(=O)n(C)c1 (stereo in doubt; 61)	2.8
CNC(=O)[C@H](C1CCOCC1)N(CC(c1ccccc1)c1ccccn1)C(=O)c1cc(C)c(=O)n(C)c1 (stereo in doubt; 62)	2.8

Test: physchem
Settings: FaSSIF, pH 6.5

Compound	solubility at 16 h [µg/mL]
Cc1cc(C(=O)N(CC(c2ccccc2)c2ccccc2)C(C)CN2CCOCC2)cn(C)c1=O (configuration not stated)	91 (≈ 192 µM)
CNC(=O)C(C1CC1)N(CC(c1ccccc1)c1ccccc1)C(=O)c1cc(C)c(=O)n(C)c1 (configuration not stated)	30 (≈ 65.6 µM)
CNC(=O)C1(N(CC(c2ccccc2)c2ccccc2)C(=O)c2cc(C)c(=O)n(C)c2)CC1	819 (≈ 1850 µM)
COCC(COC)N(CC(c1ccccc1)c1ccccc1)C(=O)c1cc(C)c(=O)n(C)c1	78 (≈ 174 µM)
Cc1cc(C(=O)N(CC(c2ccccc2)c2ccccc2)C(C)C#N)cn(C)c1=O (configuration not stated)	13 (≈ 32.5 µM)

Test: not given
Settings: buffer, pH 7.4

Compound	logD
CNC(=O)C(C)N(CC(c1ccccc1)c1ccccn1)C(=O)c1cc(C)c(=O)n(C)c1 (stereo in doubt; 51)	2.1
CNC(=O)C(C)N(CC(c1ccccc1)c1ccccn1)C(=O)c1cc(C)c(=O)n(C)c1 (stereo in doubt; 56)	2.7
CNC(=O)C(C)N(CC(c1ccccc1)c1ccccn1)C(=O)c1cc(C)c(=O)n(C)c1 (stereo in doubt; 57)	2.6
CNC(=O)[C@@H](C1CCOCC1)N(CC(c1ccccc1)c1ccccn1)C(=O)c1cc(C)c(=O)n(C)c1 (stereo in doubt; 63)	2.9

Test: physchem
Settings: not given

Compound	solubility [µg/mL]
CNC(=O)[C@H](C)N(CC(c1ccccc1)c1ccccc1)C(=O)c1cc(C)c(=O)n(C)c1	> 163
Cc1cc(C(=O)N(CC(c2ccccc2)c2ccccc2)C(C)CN2CCOCC2)cn(C)c1=O (configuration not stated)	> 206
CNC(=O)[C@@H](C)N(CC(c1ccccc1)c1ccccc1)C(=O)c1cc(C)c(=O)n(C)c1	> 211
CNC(=O)C(C)N(CC(c1ccccc1)c1ccccc1)C(=O)c1cc(C)c(=O)n(C)c1 (configuration not stated)	213 (≈ 494 µM)
CNC(=O)C(C1COC1)N(CC(c1ccccc1)c1ccccc1)C(=O)c1cc(C)c(=O)n(C)c1 (configuration not stated)	> 142
CNC(=O)C(C1CCC1)N(CC(c1ccccc1)c1ccccc1)C(=O)c1cc(C)c(=O)n(C)c1 (configuration not stated)	161 (≈ 341 µM)
CNC(=O)C(C1CC1)N(CC(c1ccccc1)c1ccccc1)C(=O)c1cc(C)c(=O)n(C)c1 (configuration not stated)	91 (≈ 199 µM)
CCNC(=O)C(C)N(CC(c1ccccc1)c1ccccc1)C(=O)c1c[nH]c(=O)c(C)c1 (configuration not stated)	> 170
CNC(=O)C1(N(CC(c2ccccc2)c2ccccc2)C(=O)c2cc(C)c(=O)n(C)c2)CC1	> 194
COCC(COC)N(CC(c1ccccc1)c1ccccc1)C(=O)c1cc(C)c(=O)n(C)c1	> 186
Cc1cc(C(=O)N(CC(c2ccccc2)c2ccccc2)C(C)C#N)cn(C)c1=O (configuration not stated)	> 157
CNC(=O)CN(CC(c1ccccc1)c1ccccc1)C(=O)c1cc(C)c(OC)c(C)c1	114 (≈ 265 µM)
CNC(=O)C1(N(CC(c2ccccc2)c2ccccc2)C(=O)c2cc(C)c(=O)n(C)c2)CCC1	> 150
CCNC(=O)C(C)N(CC(c1ccccc1)c1ccccc1)C(=O)c1ccc(=O)n(C)c1 (configuration not stated)	> 169
